The test system of assay [1] is angiotensin II infused rats. In words: Assay A angiotensin II infusion model: systolic blood pressure by tail-cuff. It counts as in vivo, rat. As to conditions: Wistar rats, 1% NaCl, angiotensin II 25 ng/min sc; eplerenone 100 mpk; 4 weeks. Here is the method: Assay A: In Vivo Angiotensin II Infusion Model
Male Wistar rats (n—50, 10/group; BW=200 g)
2. Angiotensin 11 (25 ng/min, sc via aizet minipump)
SBP measured by tail-cuff every week

Assay [2] deals with angiotensin II infused rats. In words: Assay A angiotensin II infusion model: heart histology (coronary vascular inflammation, myocardial injury). It counts as in vivo, rat. Conditions: out of ten animals per group; angiotensin II/salt, 4 weeks; eplerenone 100 mpk.

As for “angiotensin II: angiotensin II, 25 ng/min sc via minipump, used to induce hypertension with vascular inflammation in rats (DRVYIHPF; Angiotensin-2; UniProt P01015 25-32, looked up) [reference compound]”, the Systolic Blood Pressure entry in assay [1] is “Systolic blood pressure increased”. Besides, the “Animals with vascular inflammatory lesions in the coronary arteries” value in assay [2] is reported as “Seven out of the ten”.

The values are drawn from patent US20030162759A1, “Aldosterone blocker therapy to prevent or treat inflammation-related disorders” (priority 2000, published 2003).
